# In patent US7632972B2, “Compounds and methods for treatment of cancer and modulation of programmed cell death for melanoma and other cancer cells” (The Board of Trustees of the University of Illionis, priority 2003, dated 2009):
# Like-named read-outs stand apart in the source and are kept apart here.
# What was measured:
# [1] = system: UACC-62; assay: Death induction in melanoma cell line; format: cell-based, human
# Experimental: (§1) Given the interesting and somewhat unusual trait of G1 arrest, compounds x and y were tested for their ability to induce death in two melanoma cell lines: UACC-62 (human), and B16-F10 (mouse). […] Compounds x and y were also submitted for testing in the NCl 60-cell line assay. […] The triphenylamides (TPAs) induce apoptosis in these melanoma cell lines.
# [2] = system: B16-F10; assay: Death induction in melanoma cell line; format: cell-based, mouse
# Experimental: as §1
# [3] = system: U-937 cells; assay: cells; format: cell-based, human; conditions: Homo sapiens; Table 13, U-937
# [4] = system: human bone marrow cells; assay: Toxicity to bone marrow cells of a healthy donor, MTS bioreduction after 72 hours; format: cell-based; conditions: Bone marrow cell, Table 13, bone marrow cells of healthy donor
# Description: Specificity for cancer cells. The vast majority of anti-cancer drugs are toxic to all rapidly dividing cell types, often leading to deleterious side effects and a reduced therapeutic window. For instance, hematopoietic bone marrow is responsible for the production of red and white blood cells, and the anemia observed upon treatment with certain chemotherapy agents is in a large part due to the toxicity of the anti-cancer drugs on cells in the human bone marrow. Thus, to determine the relative effect of the triphenylamides on melanoma versus normal cells, cells derived from the human bone marrow of a healthy donor were used; measurement of the effect on healthy bone marrow cells can assist in assessing the toxicity of putative anti-cancer agents. (17-20) These cells were treated with increasing concentrations of the compounds shown in Table 13, and cell viability was evaluated after 72 hours using the MTS bioreduction assay. The data in Table 13 indicate that several of the triphenyl amides have selective toxicity to melanoma cells versus the human bone marrow cells.
# [5] = system: HL-60 cells; assay: Determination of IC50 values, cell death by MTS/PMS after 72 h; conditions: Homo sapiens, HL-60, read-out: HL-60
# Experimental: General Cell Culture Conditions: U-937 and HL-60 cell lines were grown in RPMI 1640 supplemented with 10% FBS and incubated at 37° C. in a 5% CO2, 95% air atmosphere and were split every two to three days as necessary.
# Cells were then resuspended in RPMI 1640+10% FBS, counted using a hemocytometer and diluted so that 10,000 cells were seeded in to each well of a Corning 96-well flat bottom microtiter plate (Fisher, Chicago Ill.). Media was then added to bring the total volume of each well to 100 μL. Each compound was weighed and then diluted with EtOH to make a 100 mM stock solution. The compounds were added at 9 or more different concentration in 1 μL of EtOH. After a 72 h incubation (37° C. in a 5% CO2, 95% air atmosphere) cell death was quantitated by addition of 20 μL of the MTS/PMS CellTiter 96 Cell Proliferation Assay reagent (Promega, Madison Wis.) to each well. The plates were incubated at 37° C. for approximately 1 hour until the colored product formed and the absorbance was then measured at 490 nm in a Spectra Max Plus 384 plate reader (Molecular Devices, Sunnyvale Calif.). The IC50 was taken as the concentration that caused 50% cell death.
# [6] = system: U-937 cells; assay: High-throughput cell death assay on library members (MTS/PMS); format: cell-based, human; conditions: library members at 100 μM, 24 hours
# Experimental: A three-tiered system was devised to identify compounds that selectively induce apoptosis in cancer cells. First, all compounds were screened at 100 μM in a high-throughput manner for their ability to induce death in two cancer cell lines, HL-60 (leukemia) and U-937 (lymphoma).
# Test compounds were transferred into the wells using a 96-pin transfer apparatus (V & P Scientific, San Diego Calif.) that transfers 0.2 μL of compound. The compounds were made up as 50 mM stock solutions in 100% EtOH, so one transfer gave a final concentration of 100 μM. Controls were performed in which only EtOH (containing no compound) was pin-transferred into wells containing cells. The cells were incubated with the compounds for 24 hours, and then cell death was quantitated.
# [7] = in vitro; format: cell-based, human; conditions: human
# [8] = system: etoposide induced apoptosis; assay: Inhibition of etoposide induced apoptosis; format: cell-based
# [9] = system: U-937 cells; assay: Analysis of mitochondria depolarization by flow cytometry (JC-9 dye); format: cell-based, human
# Experimental: Further experiments assessed whether the observed death from 12-D, 13-D, and 15-D was due to apoptosis or necrosis.
# Analysis of Mitochondria Depolarization by Flow Cytometry: The depolarization of the mitochondrial membrane was measured by the fluorescence emitted by the JC-9 dye (Molecular Probes, Eugene Oreg.). 100 μM of 13-D or 10 μM etoposide in 1 μL of EtOH were added to cell culture flasks containing 50 mL of 10×10^6 U-937 cells/mL. […] 10 μg of the JC-9 dye was added to 1×10^6 cells in 1 mL and incubated at room temperature for 10 min. Cells were washed twice with PBS and resuspended in a final volume of 500 μL PBS. The fluorescence intensity of each cell was determined by flow cytometry at 525 nm (channel 1 green) and 675 nm (channel 4 red). 50,000 cells were analyzed in each experiment. The data was then analyzed using Summit Software (Cytomation, Fort Collins Colo.) and the number of cells within the upper left region, viable cells, was determined.
# Apoptotic assays. To determine whether the observed death was due to apoptosis or necrosis, several apoptotic hallmarks were examined. Thus early stage (mitochondrial membrane depolarization), middle stage (caspase-3 like activation, PARP-1 cleavage) and late stage (chromatin condensation, phosphatidylserine exposure, membrane blebbing) biochemical events were monitored. The depolarization of mitochondrial membranes facilitates the release of pro-apoptotic proteins such as cytochrome c and AIF (apoptosis inducing factor) from the mitochondria into the cytosol. Several dyes, including JC-9, have been developed that provide a sensitive readout on this process. […] The release of pro-apoptotic stimuli from the mitochondria initiates a cascade of events that ultimately results in the activation of the “executioner” caspases, typically caspase-3 and caspase-7. The caspase-3-like activity of the cells can be monitored with peptidic substrates. […] PARP-1 cleavage. A final event in apoptosis is the exposure of phosphatidylserine on the outer leaflet of the cell membrane; this event allows for recognition of apoptotic cells by phagocytes, ultimately leading to the engulfment of the apoptotic cell and the recycling of the various cellular components.
# [10] = system: U-937 cell line; assay: Death induction by amide library, MTS dye reduction; format: cell-based, human
# Experimental: Compounds were tested in a U937 cell assay as previously described by Hergenrother et al. (see Hergenrother 2003 and U.S. 60/516,566).
# The ability of the 100 amides thus produced to induce death in cancer cells was assessed by an assay based on the reduction of the MTS (3-(4,5-dimethylthiazol-2-yl)-5-(3-carboxymethoxyphenyl)-2-(4-sulfophenyl)-2H-tetrazolium, inner salt) dye. This tetrazolium dye is rapidly converted to the formazan product by living cells, and therefore provides a sensitive readout of cell life or death that can be monitored at 490 nm.
# [11] = UACC-62, human melanoma cell line, read-out: IC50, UACC-62
# [12] = B16-F10, mouse melanoma cell line, read-out: IC50, BF16-F10
# [13] = Homo sapiens, Table 13, UACC-62 melanoma, read-out: UACC-62
# [14] = Mus musculus, B16-F10, Table 13, B16F10 melanoma, read-out: B16F10
# [15] = Homo sapiens, U-937, hit compounds of first generation library, read-out: IC50 Value-U-937 cells
# [16] = hit compounds of first generation library, read-out: IC50 Value-U-937 cells
smiles,measurement,setting,value
O=C(NC12CC3CC(CC(C3)C1)C2)C(c1ccccc1)(c1ccccc1)c1ccccc1 [drawing 75],IC50,[1]; [11],2.4 µM
same,IC50,[2]; [12],15.7 µM
O=C(NCCc1ccccc1)C(c1ccccc1)(c1ccccc1)c1ccccc1 [drawing 73],IC50,[1]; [11],0.49 µM
same,IC50,[2]; [12],0.42 µM
COc1ccc(CNC(=O)C(c2ccccc2)(c2ccccc2)c2ccccc2)cc1,IC50,[3],8.16 µM
same,IC50,[1]; [13],0.69 µM
same,IC50,[2]; [14],0.6 µM
same,IC50,[4],4.77 µM
same,IC50,[5],10.5 µM
COc1ccc(CNC(=O)CC(c2ccccc2)(c2ccccc2)c2ccccc2)c(OC)c1,IC50,[3],7.17 µM
same,IC50,[1]; [13],0.52 µM
same,IC50,[2]; [14],0.55 µM
same,IC50,[4],1.87 µM
same,IC50,[5],2.26 µM
"COc1cc(/C=C/C(=O)NC[C@@H](OC)c2ccc(O)cc2)ccc1O [Compound 9-D, 3-(4-Hydroxy-3-(S)-methoxy-phenyl)-N-[2-(4-hydroxy-phenyl)-2-methoxy-ethyl]-acrylamide]",Induction of death in U-937 cells (percentages of cell death),[6],20%
same,IC50 at 72 h,[7],273 µM
same,activity in assays exploring inhibition of etoposide induced apoptosis,[8],Neither compound 1 nor any library members showed activity
"COc1cc(/C=C/C(=O)NC[C@@H](O)c2ccccc2)ccc1O (stereo in doubt) [Compound 12-D, 3-(4-Hydroxy-3-methoxy-phenyl)-N-(2-hydroxy-2-phenyl-ethyl)-acrylamide]",Induction of death in U-937 cells (percentages of cell death),[6],82%
same,IC50 at 72 h,[7],61 µM
same,observed death due to apoptosis or necrosis,[9],"induced some apoptosis, some necrosis"
COc1cccc(/C=C/C(=O)Nc2cc(OC)c(OC)c(OC)c2)c1,IC50,[10]; [15],8 µM
CC(=O)OC(CNC(=O)C(c1ccccc1)(c1ccccc1)c1ccccc1)c1ccccc1 (stereo not drawn),IC50,[3],10.8 µM
same,IC50,[1]; [13],0.62 µM
same,IC50,[2]; [14],0.8 µM
same,IC50,[4],4 µM
same,IC50,[5],16.2 µM
COc1cc([C@@H]2c3cc4c(cc3[C@@H](O[C@@H]3O[C@@H]5CO[C@@H](C)O[C@H]5[C@H](O)[C@H]3O)[C@H]3COC(=O)[C@H]23)OCO4)cc(OC)c1O [Etoposide],IC50,[1]; [13],> 100 µM
same,IC50,[2]; [14],> 100 µM
O=C(NC12CC3CC(CC(C3)C1)C2)C(c1ccccc1)(c1ccccc1)c1ccccc1 [drawing 78],IC50,[3],0.48 µM
same,IC50,[1]; [13],2.41 µM
same,IC50,[2]; [14],15.7 µM
same,IC50,[4],0.59 µM
same,IC50,[5],0.85 µM
"COc1cc(/C=C/C(=O)NC[C@H](O)c2ccc(O)cc2)ccc1O [Compound 15-D, N-[2-(R)-Hydroxy-2-(4-hydroxy-phenyl)-ethyl]-3-(4-hydroxy-3-methoxy-phenyl)-acrylamide]",Induction of death in U-937 cells (percentages of cell death),[6],89%
same,IC50 at 72 h,[7],109 µM
same,observed death due to apoptosis or necrosis,[9],"induced some apoptosis, some necrosis"
O=C(NC1C2CC3CC(C2)CC1C3)C(c1ccccc1)(c1ccccc1)c1ccccc1 (stereo not drawn),IC50,[3],0.49 µM
same,IC50,[1]; [13],15.3 µM
same,IC50,[2]; [14],7.41 µM
same,IC50,[4],0.32 µM
same,IC50,[5],0.92 µM
"COc1ccccc1CCNC(=O)CC(c1ccccc1)(c1ccccc1)c1ccccc1 [drawing 69, R1 = OCH3, R2 = H, R3 = H]",IC50,[10]; [16],15.7 µM
C[C@]12C=CC(=O)C=C1CC[C@@H]1[C@@H]2C(=O)C[C@@]2(C)[C@H]1CC[C@]2(O)C(=O)CO [Prednisone],IC50,[1]; [13],> 100 µM
same,IC50,[2]; [14],> 100 µM
COc1ccc(/C=C/C(=O)NC23CC4CC(CC(C4)C2)C3)c2ccccc12,IC50,[10]; [15],7.1 µM
COc1ccc([C@H](O)CNC(=O)/C=C/c2ccccc2)cc1 [Compound 14-A],Induction of death in U-937 cells (percentages of cell death),[6],28%
"COc1ccc(CCNC(=O)CC(c2ccccc2)(c2ccccc2)c2ccccc2)cc1OC [drawing 69, R1 = H, R2 = OCH3, R3 = OCH3]",IC50,[10]; [16],18.3 µM
CCCCCCCCCCCCCCCC(=O)N(C)C(C)C(O)c1ccccc1 (stereo not drawn),IC50,"[10]; Homo sapiens, U-937, read-out: IC50 Value-U-937 cells",3.1 µM
COc1cc(/C=C/C(=O)NC[C@@H](O)c2ccccc2)cc(OC)c1O [Compound 12-G],Induction of death in U-937 cells (percentages of cell death),[6],41%
COc1ccc(/C=C/C(=O)NC[C@H](OC)c2ccc(O)cc2)cc1O [Compound 11-E],Induction of death in U-937 cells (percentages of cell death),[6],41%
"O=C(NCCc1ccccc1)C(c1ccccc1)(c1ccccc1)c1ccccc1 [drawing 68, R = H]",IC50,[10]; [16],8 µM
COc1cccc(CCNC(=O)CC(c2ccccc2)(c2ccccc2)c2ccccc2)c1 [drawing 74],IC50,[1]; [11],1.34 µM
same,IC50,[2]; [12],0.85 µM
COc1cccc(/C=C/C(=O)NCCc2ccccc2)c1 [Compound 16-H],Induction of death in U-937 cells (percentages of cell death),[6],57%
O=C(/C=C/c1ccccc1)NCCc1ccc(O)cc1 [Compound 17-A],Induction of death in U-937 cells (percentages of cell death),[6],48%
COc1cc(/C=C/C(=O)NCCc2ccc(O)cc2)cc(OC)c1O [Compound 17-G],Induction of death in U-937 cells (percentages of cell death),[6],26%
COc1ccc([C@@H](CNC(=O)/C=C/c2ccc(OC)c(O)c2)OC)cc1 [Compound 10-E],Induction of death in U-937 cells (percentages of cell death),[6],55%
O=P1(N(CCCl)CCCl)NCCCO1 (stereo not drawn) [Cyclophosphamide],IC50,"[1]; Homo sapiens, UACC-62, read-out: UACC-62",> 100 µM
same,IC50,"[2]; Mus musculus, B16-F10, read-out: B16F10",> 100 µM
COc1cccc(/C=C/C(=O)NC[C@@H](O)c2ccccc2)c1 [Compound 12-H],Induction of death in U-937 cells (percentages of cell death),[6],51%
O=C(NC1CCCc2ccccc21)C(c1ccccc1)(c1ccccc1)c1ccccc1 (stereo not drawn),IC50,[3],1.25 µM
same,IC50,[1]; [13],1.77 µM
same,IC50,[2]; [14],0.98 µM
same,IC50,[4],0.5 µM
same,IC50,[5],2.21 µM
COc1cccc(/C=C/C(=O)NCCc2ccc(O)cc2)c1 [Compound 17-H],Induction of death in U-937 cells (percentages of cell death),[6],41%
COc1ccc([C@@H](CNC(=O)/C=C/c2cc(OC)c(O)c(OC)c2)OC)cc1 [Compound 10-G],Induction of death in U-937 cells (percentages of cell death),[6],16%
CO[C@H](CNC(=O)/C=C/c1ccc(O)cc1)c1ccccc1 [Compound 8-B],Induction of death in U-937 cells (percentages of cell death),[6],34%
O=C(/C=C/c1ccc(O)cc1)NC[C@@H](O)c1ccccc1 [Compound 12-B],Induction of death in U-937 cells (percentages of cell death),[6],47%
COc1cc(/C=C/C(=O)NC[C@H](OC)c2ccc(O)cc2)cc(OC)c1OC [Compound 11-F],Induction of death in U-937 cells (percentages of cell death),[6],27%
O=C(CC(c1ccccc1)(c1ccccc1)c1ccccc1)NCCc1cccnc1,IC50,[3],0.93 µM
same,IC50,[1]; [13],0.7 µM
same,IC50,[2]; [14],1.61 µM
same,IC50,[4],0.68 µM
same,IC50,[5],1.39 µM
